The target in the first data set is CDK2 (Mus musculus, UniProt P97377). The data set can be described thus: immunoprecipitated CDK2 kinase assay, […]histone H1 substrate; cisplatin-treated cells ([…] from untreated cells). It counts as biochemical.
Details: not given
`O=C1Cc2c([nH]c3ccc(Br)cc23)-c2ccccc2N1` [kenpaullone] gave an IC50 of 1.7 ± 0.9 µM.

Tested on in the next data set: not listed separately
Description: in vitro. Also on record: CellTiter-Glo cell viability, compound alone. Conditions: mouse, hei-oc1 cells; compound alone; read-out: LD50 (μM) in HEI cells. The text has this: For this screen, caspase-3 cleavage was chosen as the endpoint indicating cisplatin-induced cell death, as it allowed the inhibition of cell death to be monitored at the level of any intracellular molecular target upstream of caspase-3 cleavage in the HEI-OC1 cell line ([Kalinec et al., 2003]; [Kim et al., 2010]). […] This screen has been described in detail elsewhere ([Teitz et al., 2016]). Assays were first optimized at the bench. Optimized aspects included the number of cells to be plated (1,600 cells/well), the cisplatin concentration (50 µM, based on the dose–response curve), the incubation time (22 h at 33°C in 10% CO2), and the concentration of pifithrin-α (17 µM). The Caspase-Glo 3/7 assay (Promega), which enables the measurement of light emitted as the result of caspase cleavage and is suitable for HTS, was used. The linearity of the Caspase-Glo 3/7 assay was validated, and it was verified that 0.5% DMSO had no effect on the cell death kinetics ([Hall et al., 2014]). Compound toxicity was tested by cell viability assay CellTiter-Glo (Promega) with compound alone. The Caspase-Glo 3/7 assay was then tested for reproducibility in the St. Jude robotic systems in 384-well plates (white, solid-bottom, tissue culture–treated, polystyrene plates; Corning). By using a pin tool, test compounds dissolved in DMSO were added to the screen to a final concentration of 8 µM, and cisplatin solution in PBS was added 2 min later to each well to a final concentration of 50 µM (in <0.5% DMSO; Fig. S1 A). The cells were incubated with the test compounds and cisplatin for 22 h at 33°C in 10% CO2, with the medium being as previously described ([Kalinec et al., 2003]); no γ IFN was added to slow the cells’ growth rate and to mimic as closely as possible the conditions of postmitotic, nondividing sensory epithelial (organ of Corti) cells. The 384-well plates were shaken and centrifuged after compound addition to enhance the reprod  Figure 1. […] (A) Screening of a bioactive compound library of 4,385 unique compounds, including 845 FDA-approved drugs, in HEI-OC1 cells. Cells treated with 50 µM cisplatin (red dots) were assigned 100% caspase-3/7 activity. Cells not treated with cisplatin, i.e., those grown in medium only (black dots) were assigned 0% caspase-3/7 activity. Each compound was added to a final concentration of 8 µM in the presence of 50 µM cisplatin (cyan dots). The cell-based screen mean Z′ was 0.75, the signal window was 12, and the signal fold change was 4.9. […] The caspase-3/7 IC50 activity and structure are indicated for each compound. Error bars: SEM. […] Phalloidin labels the HCs. (I–K) OHC survival (percentage; mean ± SEM) after treatment with various concentrations of compounds and/or cisplatin (CIS). The number of cochlear explants analyzed is indicated in each bar. *, P < 0.05 and **, P < 0.01 by one-way ANOVA followed by a Bonferroni comparison. We identified 177 hits that reduced cisplatin-induced caspase-3/7 activity by 60% or more. These compounds were further validated and characterized by dose-responsive analysis for potency and toxicity in HEI-OC1 cells; toxicity was assessed by a cell viability assay (CellTiter-Glo) with the test compounds alone (Fig. 1, B–D; and Fig. S1, E–K). The top 10 hits in this screen (with IC50 values in the HEI-OC1 cells of 0.04–6.2 µM) and their protective properties, as investigated in this study, are summarized in Table S1. The FDA has approved three of the compounds (leflunomide, [compound left out], and olsalazine sodium) for treating other medical conditions.
Regarding `CCOc1cc2ncc(C#N)c(Nc3ccc(F)c(Cl)c3)c2cc1NC(=O)/C=C/CN(C)C` [Pelitinib], the CC50 at 22 h is over 40 µM.

For `O=C1Cc2c([nH]c3ccc(Br)cc23)-c2ccccc2N1` [kenpaullone], the CC50 at 22 h is over 40 µM.

As to `CCCCCC[C@H]1C(=O)O[C@H](C)[C@H](NC(=O)c2cccc(NC=O)c2O)C(=O)O[C@@H](C)[C@@H]1OC(=O)CC(C)C` [Antimycin A], the CC50 at 22 h is over 10 µM.

Take `Cc1oncc1C(=O)Nc1ccc(C(F)(F)F)cc1` [Leflunomide]: the CC50 at 22 h was over 40 µM.

As to `CC[C@H](CO)Nc1nc(NCc2ccccc2O)c2ncn(C(C)C)c2n1` [Olomoucine II], the CC50 at 22 h is over 40 µM.

For `O=C(O)c1cc(/N=N/c2ccc(O)c(C(=O)O)c2)ccc1O` [Olsalazine sodium], the CC50 at 22 h is over 40 µM.

On to `NS(=O)(=O)c1ccc(N=Nc2c(O)[nH]c3ccc(Br)cc23)cc1` [CDK2 inhibitor II], for which the CC50 at 22 h was over 40 µM.

As to `O=c1cc(CN2CCOCC2)occ1OCCCCCSc1ccnc2cc(C(F)(F)F)ccc12` [EHT1864], the CC50 at 22 h is over 20 µM.

Broadly, the IC50 is the concentration that gives 50% inhibition. The low end stands for greater potency in that assay, the high end for weaker potency in that assay.
